Series [1] in a line: Cytotoxicity against human granulocytes upto 100 ug/mL.
Series [2] in a line: Induction of human granulocyte phagocytosis at 10 to 100 ug/mL. In kind it is functional.

For the compound `C[C@H]1O[C@@H](OC(=O)[C@]23CCC(C)(C)C[C@H]2C2=CC[C@@H]4[C@@]5(C)C[C@H](O)C(O[C@@H]6O[C@H](CO)[C@@H](O)[C@H](O)[C@H]6O)[C@@](C)(C(=O)O)[C@@H]5CC[C@@]4(C)[C@]2(CO)CC3)[C@H](O[C@@H]2O[C@H](C)[C@H](O[C@@H]3OC[C@@H](O)[C@H](O[C@@H]4O[C@H](CO)[C@H](O)[C@H](O)[C@H]4O)[C@H]3O)[C@@H](O)[C@H]2O)[C@@H](O[C@@H]2O[C@H](CO)[C@@H](O)[C@H](O)[C@H]2O)[C@H]1O` (some centres not stated), the results for the Activity entry in series [1] and in series [2] were “Non-toxic” and 60%, respectively.
